Data taken from PubChem BioAssay AID1963840 (Molecular Pharmacology Branch, DTP, NCI, 2024).
Values joined by “and” are separate entries in the source; they are usually repeats but may differ in a detail not shown here. Equal entries are not always repeated.

Tested on: 695427-040-R-J1-PDC complex spheroid viability
Assay: Anticancer human tumor 695427-040-R-J1-PDC patient-derived colon adenocarcinoma cell line growth inhibition [POLQ]
Conditions: for viability, T/C: stronger effect = lower value; for IC50: curve of compound
Procedure: Multicellular complex tumor spheroid response to Polymerase (POL) inhibitors (novobiocin, ART-558, RP6685) in combination with a variety of drugs and investigational agents in selected tumor cell lines
The POL inhibitors (novobiocin, ART-558, and RP6685) were evaluated both individually and in combination with standard of care and investigational anticancer small molecules within a complex spheroid model of solid tumors. . Complex spheroids include a stromal component modeled by human endothelial cells (HUVEC) and fibroblasts modeled by human mesenchymal stem cells (MSCs). The concentration ranges selected for each drug and investigational agent were based upon clinically achievable concentrations if the clinical Cmax of the agent was known.
Compounds. The drugs and investigational agents: novobiocin (NSC847541), ART-558 (NSC835418), RP-6685 (NSC848927), peposertib (NSC802822), ceralasertib (NSC780249), elimusertib (NSC800525), camonsertib (NSC841442), AZD-1390 (NSC803789), olaparib (NSC753686), talazoparib (NSC767125), rucaparib (NSC756644), sotorasib (NSC818433), MRTX-1133 (NSC836407), SN-38 (NSC673596), topotecan (NSC609699), epotoside (NSC141540), doxorubicin (NSC123127), gemcitabine (NSC613327), 5-fluorouracil (NSC19893), paclitaxel (NSC125973), vemurafenib (NSC761431), MSA-2 (NSC828583), SN-011 (NSC837082), adavosertib (NSC754352), prexasertib (NSC758257), carboplatin (NSC241240) and oxaliplatin (NSC266046), were obtained from the National Cancer Institute (NCI) Developmental Therapeutics Program Chemical Repository (21). The FDA-approved anticancer drug set is available from the Developmental Therapeutics Program at https://dtp.cancer.gov/organization/dscb/obtaining/. […] The stock solutions were prepared in dimethyl sulfoxide (DMSO, Sigma-Aldrich, St. Louis, MO, cat. D2650), except for the platinum compounds which were prepared in saline (Quality Biological, Gaithersburg, MD, cat. 114-055-101), at 800-fold the tested concentration and stored at -70 degrees C prior to their use. All drugs and investigational agents were tested over a range starting from a high concentration at or near the clinical Cmax and decreasing in half-log increments. If the clinical Cmax for an agent had not been determined, the highest concentration tested was 10 microM, except for SN-38, which was tested at a high concentration of 1 microM.
Cell Culture. All cells were maintained in an incubator at 37 degrees C and 5% CO2 with 95% humidity. The PDC lines were cultured according to standard operating procedures established by the NCI PDMR (https://pdmr.cancer.gov). Table 3 of the manuscript, lists the cell lines along with the number of the three cell types plated to form the mct-spheroids and media for tumor cell growth. After thawing, all PDC lines, except 997537-175-T-J1-PDC and 415267-285-R-J2-PDC, were cultured in Matrigel-coated flasks prepared with a working solution of 1X Ham's F-12 nutrient mix, without supplementation (Thermo Fisher Scientific, cat. 11765054), 100 U/mL penicillin-streptomycin (Thermo Fisher Scientific, cat. 15140122), and 2.5% Matrigel (Corning Inc., Corning, NY, cat. 354248) for the first three passages. The two PDC lines 997537-175-T-J1-PDC and 415267-285-R-J2-PDC were cultured on uncoated flasks. The 857933-349-R-J2-PDC line was cultured in 6C/Colon 1B media containing advanced DMEM/F-12 (Thermo Fisher Scientific, cat. 12634028), 10 mM HEPES (Thermo Fisher Scientific, cat. 15630080), 1X GlutaMAX supplement (Thermo Fisher Scientific, cat. 35050061), 0.1 mg/mL primocin (InvivoGen, San Diego, CA, cat. ant-pm-2), 10% defined fetal bovine serum, heat inactivated (HyClone Laboratories Inc., Logan, UT, cat. SH30070.03HI), 50% L-WRN conditioned media (ATCC, cat. CRL-3276), 1.25 mM N-Acetyl-L-cysteine (Sigma-Aldrich, cat. A9165), 10 mM nicotinamide (Sigma-Aldrich, cat. N0636), 1X B-27 supplement (Thermo Fisher Scientific, cat. 17504044), 1X N-2 supplement (Thermo Fisher Scientific, cat. […]
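Note: spheroids exposed to compounds for seven days.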
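Throughout, for viability, T/C: 100% = DMSO vehicle control viability.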

SMILES | viability, T/C (compound 0.0316 µM) | viability, T/C (compound 0.1 µM) | viability, T/C (compound 0.316 µM) | viability, T/C (compound 1 µM) | viability, T/C (compound 3.16 µM) | viability, T/C (compound 10 µM) | IC50 | viability, T/C (compound 0.00316 µM) | viability, T/C (compound 0.01 µM) | viability, T/C (compound 0.00949 µM) | viability, T/C (compound 0.03 µM) | viability, T/C (compound 0.0949 µM) | viability, T/C (compound 0.3 µM) | viability, T/C (compound 0.949 µM) | viability, T/C (compound 3 µM) | viability, T/C (compound 0.000316 µM) | viability, T/C (compound 0.001 µM)
C#Cc1c(F)ccc2cc(O)cc(-c3ncc4c(N5CC6CCC(C5)N6)nc(OCC56CCCN5CC(F)C6)nc4c3F)c12 (stereo not drawn) | 102% (2×) and 106% | 93.8% and 98.8% and 105% | 95% and 98.2% and 97.1% | 98.6% and 102% and 107% | 90.7% and 98.5% and 95% | 76.6% and 91% and 87.1% | > 10 µM | – | – | – | – | – | – | – | – | – | –
C=CC(=O)N1CCN(c2nc(=O)n(-c3c(C)ccnc3C(C)C)c3nc(-c4c(O)cccc4F)c(F)cc23)C(C)C1 (stereo not drawn) | 105% and 108% and 107% | 88.5% and 91.5% and 95.3% | 103% and 107% and 106% | 117% and 106% and 121% | 105% and 91.4% and 112% | 113% (2×) and 96.9% | > 10 µM | – | – | – | – | – | – | – | – | – | –
C=CCn1c(=O)c2cnc(Nc3ccc(N4CCN(C)CC4)cc3)nc2n1-c1cccc(C(C)(C)O)n1 | 98.5% and 104% and 103% | 103% and 99.2% and 95.7% | 86.5% and 95.4% and 93.7% | 77.5% and 73.7% and 82% | – | – | > 1 µM | 99.5% and 88.8% and 103% | 90.1% and 92% and 91.7% | – | – | – | – | – | – | – | –
CC(=O)O[C@H]1C(=O)[C@@]2(C)[C@H]([C@H](OC(=O)c3ccccc3)[C@]3(O)C[C@H](OC(=O)[C@H](O)[C@@H](NC(=O)c4ccccc4)c4ccccc4)C(C)=C1C3(C)C)[C@]1(OC(C)=O)CO[C@@H]1C[C@@H]2O | – | – | – | – | – | – | > 3 µM | – | – | 93.8% and 92.4% and 99.8% | 86.1% and 95.4% and 86.8% | 91.8% and 101% and 86.8% | 90.8% and 96.8% and 89.7% | 102% and 98.8% and 82.3% | 84.5% and 89.3% and 74.2% | – | –
CC(C)n1c(=O)n(C)c2cnc3cc(F)c(-c4ccc(OCCCN5CCCCC5)nc4)cc3c21 | 96.7% and 98.1% and 112% | 104% and 109% and 101% | 109% and 104% and 106% | 109% (2×) and 124% | 104% and 108% and 101% | 73.4% and 83.2% and 79% | > 10 µM | – | – | – | – | – | – | – | – | – | –
CC1COCCN1c1cc(-c2ccnn2C)c2ccnc(-c3ccn[nH]3)c2n1 (stereo not drawn) | 99% and 89.7% and 98.1% | 76.9% and 79.1% and 84.7% | 64.2% and 62% and 69.8% | 53.6% and 51.7% and 67.6% | 48.9% and 46% and 62.1% | 50.2% and 47.4% and 57.1% | 4.35 µM and 1.4 µM and > 10 µM | – | – | – | – | – | – | – | – | – | –
CC1COCCN1c1cc(C2(O)CC3CCC(C2)O3)c2cnn(-c3ccn[nH]3)c2n1 (stereo not drawn) | 100% and 101% and 103% | 85.7% and 87.4% and 94.1% | 79.1% and 75.7% and 85.8% | 64.4% and 68.9% and 78.5% | 55.6% and 52% and 69% | 46.3% and 44.4% and 55.9% | 6.3 µM and 5.11 µM and > 10 µM | – | – | – | – | – | – | – | – | – | –
CC1COCCN1c1cc(C2(S(C)(=N)=O)CC2)nc(-c2ccnc3[nH]ccc23)n1 (stereo not drawn) | 102% and 96% and 100% | 96% and 102% and 100% | 100% and 94.3% and 98.1% | 103% and 91.7% and 102% | 96.4% and 98.4% and 99.3% | 80.5% and 96.6% and 81.2% | > 10 µM | – | – | – | – | – | – | – | – | – | –
CCCS(=O)(=O)Nc1ccc(F)c(C(=O)c2c[nH]c3ncc(-c4ccc(Cl)cc4)cc23)c1F | 106% and 102% and 97.1% | 94.9% and 109% and 95.8% | 95.9% and 109% and 96.2% | 108% and 103% and 104% | 110% and 103% and 109% | 87.5% and 88.3% and 86% | > 10 µM | – | – | – | – | – | – | – | – | – | –
CC[C@@]1(O)C(=O)OCc2c1cc1n(c2=O)Cc2cc3c(CN(C)C)c(O)ccc3nc2-1 | 101% and 113% and 103% | 94.8% and 111% and 89.7% | – | – | – | – | > 0.1 µM | 102% | 96.3% and 98.2% and 106% | – | – | – | – | – | – | 94.3% and 106% and 102% | 105% and 101% and 103%
CCc1c2c(nc3ccc(O)cc13)-c1cc3c(c(=O)n1C2)COC(=O)[C@]3(O)CC | 76.8% and 99.3% and 92.6% | 77.9% and 90.7% and 82.1% | 65.9% and 87.4% and 76% | 49.6% and 66.4% and 51.3% | – | – | > 1 µM | 92.3% and 98.2% and 97% | 79.9% and 89.2% and 92.2% | – | – | – | – | – | – | – | –
CCc1cc2c(N3CCc4c(cc(Cn5ccnc5)cc4-c4cn(C)nc4C(F)(F)F)C3=O)cc(C)nc2c(OC)n1 | 107% and 108% and 105% | 105% and 101% and 108% | 110% and 98.6% and 100% | 108% and 101% and 96.8% | 104% and 112% and 110% | 96.4% and 97.9% and 106% | > 10 µM | – | – | – | – | – | – | – | – | – | –
CCc1cc2c(N3CCc4c(cc(Cn5ccnc5)cc4-c4cn(C)nc4C(F)(F)F)C3=O)ccnc2c(OC)n1 | 114% and 91.3% and 93.8% | 97.6% and 96% and 98.8% | 110% and 88.2% and 101% | 106% and 95.6% and 101% | 112% (2×) and 103% | 103% and 96% and 100% | > 10 µM | – | – | – | – | – | – | – | – | – | –
CNCc1ccc(-c2[nH]c3cc(F)cc4c3c2CCNC4=O)cc1 | 102% and 100% and 94.1% | 96.6% and 99.5% and 98.4% | 106% and 104% (2×) | 104% and 102% and 105% | 108% and 118% and 102% | 102% and 111% and 103% | > 10 µM | – | – | – | – | – | – | – | – | – | –
